120 compounds from a melting point compilation (Tetko et al.) can be followed below.

Broadly, the melting point is the temperature, or range, at which the solid turns liquid. For `Cc1[nH]c(SCC(=O)O)nc1Cc1ccccc1`, the melting point lay in the range of 183 to 185 °C.
Next, `CC(C)(C)OC(=O)NC(C(N)=NO)C1CC1` (stereo not given): 147 to 149 °C; `CCOc1ccccc1-c1nnc(S)n1N`: 153 to 155 °C.
Next, `Cn1c(=O)oc2cc(C(=O)CCl)ccc21`: 159 to 161 °C; `CC(=O)OCc1ccc(Cl)cc1C#N`: 54 to 56 °C; `Nc1cc(-c2cc(Br)ccc2Cl)[nH]n1`: 158 to 160 °C.
For the compound `Nc1cc(C(=O)O)ccc1Oc1ccccc1`, the melting point lay within 146 to 148 °C.
Next, `O=C(O)CCNc1ccccc1`: 56 to 60 °C; `CC(C)(C)c1ccc(-c2ccc(C(=O)O)o2)cc1`: 213 to 215 °C.
Next, `CC(C)OCc1cc(C(=O)O)ccc1F`: 84 to 86 °C; `CS(=O)(=O)c1cccc(C(N)c2ccc(F)cc2)c1` (stereo not given): 88 to 90 °C.
Next, `O=C1CCc2ccc(F)cc2N1`: 187 to 189 °C.
Regarding `COc1ccc(C(=O)CCC(=O)O)c(Cl)c1`, the melting point was 165 to 167 °C.
In turn, `NCC1(CO)CCOCC1` gave a melting point of 54 to 56 °C.
The same measure for `NC(=S)Cn1nc2ccccn2c1=O`: 204 to 206 °C.
In the case of `O=C(c1cc2cc(Br)ccc2o1)c1cccs1`, the melting point was in the range of 88 to 90 °C.
With `O=C(O)CCNC(=O)c1cnccn1`, the melting point is 55 to 57 °C.
The compound `COc1cc2c(c(OC)c1OC)CCNC(=O)C2` registered a melting point of 176 to 178 °C.
The compound `Cc1cccc(COc2cccc(CC(=O)O)c2)c1` displayed a melting point of 91 to 93 °C.
The same measure for `O=C(O)CCC(=O)N1CCN(c2ncccn2)CC1`: 166 to 168 °C; for `CN(C)c1nc(-c2ccccc2)c(C=O)s1`: 123 to 125 °C.
Next, `Cn1ncc(-c2nc(C3CC3)no2)c1N`: 159 to 161 °C; `O=C(O)Cc1ccc(NC(=O)C2CC2)cc1`: 189 to 191 °C; `O=C(CCl)NCC#Cc1cccc(C(F)(F)F)c1`: 80 to 82 °C.
With `CC(C)(C)n1cc(C(=O)O)c(-c2ccc(F)cc2F)n1`, the melting point was 145 to 147 °C.
The same measure for `O=C(CO)N1CCCC1`: 37 to 39 °C; for `Nc1nc(-c2ccc[nH]2)cs1`: 155 to 159 °C; for `CN(C)Cc1ccnc(N)c1`: 58 to 60 °C.
Take `Cc1cc2c(c(C)c1Cl)C(=O)CCO2`: the melting point was in the range of 67 to 69 °C.
The same measure for `Nc1cc2c(cc1N)OCCCO2`: 122 to 124 °C.
Turning to `COc1ccnc(N)c1`, the melting point lay within 99 to 101 °C.
The same measure for `Nc1ncccc1-c1ccccc1`: 103 to 105 °C; for `COc1ccc(S(N)(=O)=O)c(OC)c1C(=O)O`: 151 to 153 °C; for `CCOC(=O)c1cc(CC)sc1NC(=O)C(C)Cl` (stereo not given): 57 to 59 °C.
For `CN(C)S(=O)(=O)c1ccc2oc(NN)nc2c1`, the melting point was 218 to 220 °C.
The same measure for `COc1cc(Cl)c(C)cc1N`: 102 to 103 °C; for `Cc1c(C(=O)O)sc2[nH]cnc(=S)c12`: 309 to 311 °C.
For `Cc1ccc(CNC(=O)C2CCNCC2)cc1F`, the melting point is 134 to 136 °C.
The same measure for `CNS(=O)(=O)c1cccc(C(=O)O)c1`: 209 to 211 °C; for `CSc1cccc(NC(=O)C(C)Cl)c1` (stereo not given): 81 to 83 °C.
The same measure for `O=[N+]([O-])c1ccc(Cl)c(S(=O)(=O)Nc2nc3ccc(Cl)cc3s2)c1`: 328 to 330 °C.
For the compound `Cc1cccn2c(=O)cc(CCl)nc12`, the melting point fell in the range of 110 to 112 °C.
For `COC(=O)c1cc(S(=O)(=O)Cl)c(Br)cc1F`, the melting point was 105 to 107 °C.
Regarding `CN1CC(=O)Nc2ccc(Cl)nc21`, the melting point is 233 to 235 °C.
Next, `CCN(CCC(N)=S)C(C)=O`: 56 to 58 °C; `CCOC(=O)c1ccc(N2C(=O)Cc3ccccc3C2=O)cc1`: 174 to 176 °C; `CC1CCCC(=O)N1` (stereo not given): 87 to 89 °C.
Next, `COc1ccc(NS(=O)(=O)c2cc(N)ccc2N2CCCC2)cc1`: 178 to 182 °C.
Consider `COC(=O)c1cc(Cl)c2cc(Cl)ccc2n1`, for which the melting point is 157 to 159 °C.
Compound `O=C1CNc2ccc(Br)cc2N1` yielded a melting point of 169 to 171 °C.
Next, `COc1ccc(C(=O)c2cccc3ccccc23)cc1`: 95 to 97 °C.
The same measure for `Cc1ccc(N)c(C)c1S(=O)(=O)NC1CC1`: 96 to 98 °C; for `Nc1cc(=O)[nH]n1-c1ccccc1`: 109 to 111 °C.
The same measure for `NC(=O)CNc1ccc(C(=O)O)cc1`: 249 to 251 °C; for `O=C(O)c1cc(S(=O)(=O)Cl)c(Cl)cc1Cl`: 158 to 162 °C; for `CC(=O)OC(OC(C)=O)c1ccc(S(=O)(=O)Cl)cc1`: 109 to 111 °C.
`O=C(O)CCOc1cccc([N+](=O)[O-])c1` returned a melting point of 111 to 113 °C.
The same measure for `Cc1ccc(-n2cc(S(=O)(=O)Cl)cn2)cc1`: 92 to 94 °C.
Take `NNC(=O)C1CCCC1`: the melting point was 112 to 114 °C.
`O=C1C=CC(=O)N1c1cccc2cnccc12` came in with a melting point of 134 to 136 °C.
On to `COc1ccccc1SCC(=O)NN`, for which the melting point was 109 to 111 °C.
The same measure for `O=S1(=O)CCNCN1`: 143 to 145 °C.
The same measure for `O=C(Nc1ccccc1C(=O)O)c1ccccc1Br`: 201 to 203 °C; for `CCCn1c(C)cc(/C=C(\C#N)C(=O)O)c1C`: 199 to 201 °C; for `O=C(CBr)c1cccc(N2CCCC2=O)c1`: 83 to 85 °C.
In the case of `CCN(CC)S(=O)(=O)c1ccc(N2CC(C(=O)O)CC2=O)cc1` (stereo not given), the melting point was 123 to 127 °C.
In turn, `NNS(=O)(=O)c1ccccc1[N+](=O)[O-]` came in with a melting point of 89 to 91 °C.
In turn, `CCc1nnsc1C(=O)NC1CCCCC1` came in with a melting point of 80 to 82 °C.
Next, `O=C(O)CSc1nnc(-c2ccc(Cl)cc2Cl)[nH]1`: 161 to 163 °C; `Cc1cc(C)cc(-c2cc(N)[nH]n2)c1`: 75 to 77 °C; `Cc1cc(C=O)c(C)n1-c1cccc(F)c1`: 78 to 80 °C.
Turning to `Nc1cccnc1N1CCCC1`, the melting point was in the range of 78 to 80 °C.
Next, `CC(C)(C)OC(=O)NC1CC1(F)F` (stereo not given): 73 to 75 °C; `O=C(O)CCN1C(=O)NC2(CCCC2)C1=O`: 167 to 169 °C.
For the compound `CC(C)c1ccc(C(=O)CC#N)cc1`, the melting point was 91 to 93 °C.
Next, `O=C(O)Cn1ncc2ccc([N+](=O)[O-])cc21`: 219 to 221 °C.
For the compound `Nc1nc(-c2cccc(F)c2)cs1`, the melting point is 113 to 115 °C.
Take `CC(Sc1ccc([N+](=O)[O-])cc1)C(=O)O` (stereo not given): the melting point is 114 to 116 °C.
Next, `CC(=O)CC(=O)Nc1ccc(Br)cc1`: 137 to 139 °C; `CCCN1CCCC1C(=O)O` (stereo not given): 83 to 85 °C; `NC(=O)CC1CC1`: 125 to 127 °C.
On to `Cc1sc(=O)n(CC(=O)O)c1-c1ccc(F)cc1`, for which the melting point fell in the range of 139 to 141 °C.
For `N#Cc1ccc(Oc2cccc(Cl)c2Cl)nc1`, the melting point lay in the range of 143 to 145 °C.
The same measure for `CC1(c2ccc(OC(F)(F)F)cc2)NC(=O)NC1=O` (stereo not given): 151 to 153 °C; for `CC(C)c1c(C(=O)O)nnn1-c1ccc(F)cc1`: 146 to 148 °C.
Next, `CCn1c(C(C)=O)nc2ccccc21`: 76 to 78 °C.
The same measure for `Cc1ccc(OCc2nc(N)no2)cc1`: 144 to 146 °C; for `O=C1CNC(=O)N1c1cccc([N+](=O)[O-])c1`: 164 to 166 °C.
As for `COC(=O)c1c(CC(C)C)csc1N`, the melting point was 66 to 68 °C.
`N#Cc1c(OCCO)n[nH]c1N` registered a melting point of 163 to 165 °C.
The same measure for `Nc1cc2c(cc1C(=O)O)OCCCO2`: 160 to 162 °C.
The same measure for `CC(C)Oc1ccc(CCC(=O)O)cc1`: 74 to 76 °C; for `CC(=O)N1CCN(Cc2ccc(C(=O)O)cc2)CC1`: 229 to 231 °C.
The same measure for `Nc1ccc(C(=O)O)nc1Cl`: 214 to 216 °C; for `O=S(=O)(Cl)c1cnn(C2CCOCC2)c1`: 59 to 61 °C.
In turn, `O=C(CCl)N1CCCc2cc(S(=O)(=O)N3CCCC3)ccc21` had a melting point of 146 to 148 °C.
The same measure for `O=C(Nc1ccc(Cl)cn1)Nc1ccccc1C(=O)O`: 245 to 247 °C.
Next, `CCOc1ccc(NC(=O)CCl)cc1S(=O)(=O)N1CCCCC1`: 129 to 131 °C; `CC(C)CC(C(=O)O)N1C(=O)C2CC=CCC2C1=O` (stereo not given): 135 to 137 °C; `O=c1[nH]c2ccc([N+](=O)[O-])cc2o1`: 242 to 244 °C.
Next, `CC(NC(=O)CCC(=O)O)C(=O)c1ccccc1` (stereo not given): 96 to 98 °C; `NNC(=O)Nc1ccc(C(=O)O)cc1`: 192 to 194 °C; `Cc1ccc(NC(=O)C(=O)NN)cc1C`: 182 to 184 °C.
On to `Cc1nn(Cc2ccc(Cl)cc2)c(O)c1C=O`, for which the melting point lay in the range of 179 to 181 °C.
Next, `Nc1ccccc1C(=O)NC1CCCC1`: 174 to 176 °C.
Next, `O=C(O)c1ccc(Nc2ccccc2)c([N+](=O)[O-])c1`: 250 to 252 °C.
Next, `c1ccc(NCc2cccs2)nc1`: 76 to 78 °C.
`O=C1NC(=O)C2(CCS(=O)(=O)CC2)N1` displayed a melting point of 327 to 329 °C.
The same measure for `CNc1ccccc1C#N`: 66 to 68 °C; for `Nc1ccnc(Oc2ccccc2)c1`: 52 to 54 °C.
Next, `Nc1ccc(CSc2ccccn2)cc1`: 103 to 105 °C; `N#Cc1ccc(-c2csc(N)n2)cc1`: 267 to 269 °C; `NNC(=O)CC(F)(F)F`: 90 to 92 °C.
The same measure for `COc1cc(C=O)cc(OC)c1OCc1ccccc1`: 62 to 64 °C; for `O=[N+]([O-])c1cc(F)cc(S(=O)(=O)Cl)c1`: 40 to 42 °C; for `Cc1ccc(CC(=O)Nc2cccc(C(C)O)c2)cc1` (stereo not given): 121 to 123 °C.
`CC1(C)OC(=O)C(C(=O)C2CCCC2)C(=O)O1`: the melting point fell in the range of 63 to 65 °C.
Next, `COc1cc2c(cc1OC)CN(Cc1ccccc1N)CC2`: 149 to 151 °C; `O=C(c1c(F)cccc1F)N1CCNCC1`: 111 to 113 °C; `O=C(O)Cn1cnc(-c2ccccc2)n1`: 179 to 181 °C.
